B1: BBI: Bowman-Birk protease inhibitor (BBI; 0.8 mg; T97770, Sigma) in 100 ul liposomes (protein, UniProt P01055 40-110, looked up)
Bowman-Birk type proteinase …: DDESSKPCCDQCACTKSNPPQCRCSDMRLNSCHSACKSCICALSYPAQCFCVDITDFCYEPCKPSEDDKEN
modifications: in liposomes
notes: 0.8 mg; T97770, Sigma) in 100 ul liposomes
B2: STI: trypsin inhibitor (STI; 0.8 mg; T9003, Sigma) in 100 ul liposomes (protein, UniProt P01070 25-205, looked up)
Trypsin inhibitor A: DFVLDNEGNPLENGGTYYILSDITAFGGIRAAPTGNERCPLTVVQSRNELDKGIGTIISSPYRIRFIAEGHPLSLKFDSFAVIMLCVGIPTEWSVVEDLPEGPAVKIGENKDAMDGWFRLERVSDDEFNNYKLVFCPQQAEDDKCGDIGISIDHDDGTRRLVVSKNKPLVVQFQKLDKESL
modifications: in liposomes
notes: 0.8 mg; T9003, Sigma) in 100 ul liposomes

Test system: Skin Tumors in SKH-1 Mice Previously Treated with Ultraviolet B Light
Assay: Development of skin tumors in high-risk SKH-1 mice previously treated with UVB, topical application
Type: in vivo
Conditions: for Effect on tumor growth / tumor progression (tumor volume per mouse), in words: daily topical treatment, 21 weeks of the treatment phase, relative to control; for Percent of mice with tumors / Tumor volume per mouse / Tumor volume per tumor / Tumors per mouse: topical once a day 5 days per week
Text: Co. (Byran, Ohio). […] Controls include vehicle alone and an unrelated protein (BSA). […] Louis, Mo.). Acetone was from Fisher Scientific (Springfield, N.J.).

| Molecule | Percent of mice with tumors (week 0) | Tumor volume per mouse (week 0) [mm^3] | Tumor volume per tumor (week 0) [mm^3] | Tumors per mouse (week 0) | Percent of mice with tumors (week 6) [%] | Tumor volume per mouse (week 6) [mm^3] | Tumor volume per tumor (week 6) [mm^3] | Tumors per mouse (week 6) | Tumor volume per mouse (week 9) [mm^3] | Tumor volume per tumor (week 9) [mm^3] | Tumors per mouse (week 9) | Percent of mice with tumors (week 12) [%] | Tumor volume per mouse (week 12) [mm^3] | Tumor volume per tumor (week 12) [mm^3] | Tumors per mouse (week 12) | Percent of mice with tumors (week 15) [%] | Tumor volume per mouse (week 15) [mm^3] | Tumor volume per tumor (week 15) [mm^3] | Tumors per mouse (week 15) | Percent of mice with tumors (week 18) [%] | also measured |
| --- | --- | --- | --- | --- | --- | --- | --- | --- | --- | --- | --- | --- | --- | --- | --- | --- | --- | --- | --- | --- | --- |
| Cn1c(=O)c2c(ncn2C)n(C)c1=O [Caffeine, caffeine] | 0 | 0 | 0 | 0 | 16.7 | 0.2 ± 0.1 | 1.3 ± 0.7 | 0.2 ± 0.1 | 0.7 ± 0.5 | 3.4 ± 2.2 | 0.2 ± 0.1 | 50.0 | 4.0 ± 1.9 | 3.2 ± 0.8 | 1.3 ± 0.4 | 56.7 | 6.7 ± 2.2 | 3.2 ± 0.6 | 2.1 ± 0.5 | 80.0 | Effect on tumor growth / tumor progression (tumor volume per mouse), in words: marked delay in tumor progression; Number of tumors per mouse, in words (following topical treatment): reduced; Percent of tumor-bearing mice, in words (following topical treatment): reduced; Tumor volume per tumor, in words (following topical treatment): reduced; Tumor volume per mouse (week 18): 22.1 ± 6.2 mm^3; Tumor volume per tumor (week 18): 6.2 ± 1.3 mm^3; Tumors per mouse (week 18): 3.6 ± 0.6; Percent of mice with tumors (week 21): 76.7%; Tumor volume per mouse (week 21): 21.5 ± 6.0 mm^3; Tumor volume per tumor (week 21): 5.3 ± 1.0 mm^3; Tumors per mouse (week 21): 4.0 ± 0.7 |
| BSA in liposomes: bovine serum albumin (0.8 mg) in 100 ul liposomes; unrelated protein control | 0 | 0 | 0 | 0 | 20.0 | 0.6 ± 0.5 | 2.5 ± 1.9 | 2.0 ± 0.1 | 2.9 ± 1.4 | 2.7 ± 1.2 | 1.1 ± 0.3 | 80.0 | 9.1 ± 3.1 | 3.5 ± 1.0 | 2.6 ± 0.6 | 90.0 | 21.4 ± 6.6 | 4.0 ± 0.7 | 5.3 ± 0.8 | 90.0 | Percent of mice with tumors (week 9): 50.0%; Tumor volume per mouse (week 18): 41.1 ± 9.7 mm^3; Tumor volume per tumor (week 18): 6.3 ± 1.0 mm^3; Tumors per mouse (week 18): 6.5 ± 0.9; Percent of mice with tumors (week 21): 90.0%; Tumor volume per mouse (week 21): 44.7 ± 11.6 mm^3; Tumor volume per tumor (week 21): 6.3 ± 1.0 mm^3; Tumors per mouse (week 21): 7.1 ± 0.8 |
| B1 | 0 | 0 | 0 | 0 | 30.0 | 0.3 ± 0.1 | 0.9 ± 0.3 | 0.4 ± 0.1 | 1.0 ± 0.7 | 1.7 ± 0.8 | 0.6 ± 0.2 | 50.0 | 3.7 ± 1.8 | 2.4 ± 0.8 | 1.5 ± 0.4 | 66.7 | 9.0 ± 2.4 | 4.1 ± 0.8 | 2.2 ± 0.4 | 76.7 | Percent of mice with tumors (week 9): 27.6%; Tumor volume per mouse (week 18): 19.0 ± 4.6 mm^3; Tumor volume per tumor (week 18): 5.9 ± 1.3 mm^3; Tumors per mouse (week 18): 3.2 ± 0.6; Percent of mice with tumors (week 21): 90.0%; Tumor volume per mouse (week 21): 33.2 ± 9.6 mm^3; Tumor volume per tumor (week 21): 7.4 ± 2.0 mm^3; Tumors per mouse (week 21): 4.5 ± 0.6 |
| B2 | 0 | 0 | 0 | 0 | 16.7 | 0.8 ± 0.6 | 3.5 ± 1.9 | 0.2 ± 0.1 | 2.6 ± 1.4 | 3.0 ± 1.4 | 0.9 ± 0.2 | 46.7 | 9.4 ± 3.9 | 4.8 ± 1.3 | 1.9 ± 0.5 | 55.2 | 17.8 ± 7.9 | 5.8 ± 2.1 | 3.1 ± 0.7 | 63.3 | Effect on tumor growth / tumor progression (tumor volume per mouse), in words: unexpected and significant effect on tumor progression; Percent of mice with tumors (week 9): 41.4%; Tumor volume per mouse (week 18): 30.7 ± 11.9 mm^3; Tumor volume per tumor (week 18): 7.3 ± 2.2 mm^3; Tumors per mouse (week 18): 4.2 ± 0.9; Percent of mice with tumors (week 21): 80.0%; Tumor volume per mouse (week 21): 48.7 ± 23.3 mm^3; Tumor volume per tumor (week 21): 8.6 ± 3.2 mm^3; Tumors per mouse (week 21): 5.6 ± 0.9 |

From US7879823B2, “Topical anti-cancer compositions and methods of use thereof” (Johnson & Johnson Consumer Companies, priority 1999, dated 2011)
